Tests used:
[1] = tested on: wild type HBV or resistant variants of HBV (polymerase M204V, M204I, L180M, L180M/M204V, N236T); test: Antiviral assays in cells chronically infected with wild type HBV or resistant variants (Example 4); format: cell-based; conditions: added to the cells daily for nine consecutive days
Experimental: Antiviral assays were carried out in cells chronically infected with resistant variants of HBV. In order to gauge the efficacy of Formula (IIa) and the antiviral nucleoside analogs lamivudine (3TC) and adefovir dipivoxil (ADV) against the tested strains, the in vitro activity (EC50, μM) was determined using six different cell samples chronically infected with HBV. Each cell sample was infected with either wild type HBV or a resistant variant of HBV, wherein the resistant variants comprise mutations in the HBV polymerase (P) at the following amino acid positions: M204V, M204I, L180M, L180M/M204V, and N236T. In each assay, Formula (IIa), 3TC, or ADV was added to the cells daily for nine consecutive days.

[2] = tested on: woodchuck hepatitis virus (WHV); test: Formula (IIa) in combination with entecavir, sequential oral treatment of chronic WHV carrier woodchucks (Example 3); format: in vivo, woodchuck (Marmota monax)
Description: Ten (10) woodchucks chronically infected with WHV were used. Woodchucks were born in captivity and were inoculated at 3 days of age with cWHV7P2a inoculum, then reared until 11 months of age. Prior to the study, woodchucks were confirmed as established chronic carriers of WHV based on established criteria including the presence of WHV surface antigen (WHsAg), antibody against […], and WHV DNA. Woodchucks used in the study were of both gender and approximately between 12 and 14 months of age at the start of the study.
Two (2) groups of five (5) chronic WHV carrier woodchucks each were used in the study:
Group 1 was orally treated for 4 weeks with ETV at a daily dose of 0.5 mg/kg starting at T0, followed by add-on treatment with Formula (IIa) for 12 weeks at a daily dose of 30 mg/kg. Woodchucks were then followed for a total of 24 weeks.
Group 2 was orally treated for 12 weeks with Formula (IIa) at a daily dose of 30 mg/kg starting at T0, followed by add-on treatment with ETV for 4 weeks at a daily dose of 0.5 mg/kg. Woodchucks were then also followed for a total of 24 weeks.
Formula (IIa) was supplied as a pre-weighed powder in individual containers. An amount of powder sufficient to treat all 10 pre-weighed woodchucks per day with Formula (IIa) was mixed directly with woodchuck diet powder (Dyets Inc., Bethlehem, Pa.) and then suspended with HPLC water. The drug was orally administered with a dose syringe at T0 (Group 2) or after 4 weeks of treatment with ETV (Group 1), and thereafter every day for 12 weeks (84 days). Drug dosing was then followed by an extra 2 ml of woodchuck liquid diet to ensure complete consumption of Formula (IIa).
ETV was provided as powder. An amount of powder sufficient to treat all 10 woodchucks per day was suspended in isotonic saline at a concentration of 0.5 mg/ml. A volume (ml) of drug solution equivalent to the body weight (kg) of an individual woodchuck was then mixed with approximately 3-5 ml of woodchuck liquid diet and administered orally with a dose syringe at T0 (Group 1) or after 12 weeks of treatment with Formula (IIa) (Group 2), and thereafter every day for 4 weeks (28 days). ETV dosing was followed by an extra 2 ml of woodchuck liquid diet to ensure complete consumption of drug.
Prior to administration of Formula (IIa) or ETV at T0, then weekly until the end of the study at week 24, whole blood samples were drawn from each woodchuck under ketamine/xylazine anesthesia for determinations of serum WHV DNA, WHsAg, and anti-WHs (see Summary Table below). […] Blood samples were kept at room temperature following collection and serum harvested upon observation of clot retraction. Harvested serum was transferred to microcentrifuge tubes and stored frozen at −70° C. until use.
The induction of an innate immune response in peripheral blood and liver of woodchucks by combination treatment with Formula (IIa) and ETV were determined via real time PCR-based assays. Whole blood samples were obtained prior to the start of treatment with Formula (IIa) at T0, and then at weeks 4, 10, 16, 20, and 24 (Group 1) or at weeks 6, 12, 16, 20, and 24 (Group 2) (see Summary Table below). Whole blood was drawn into PAXgene blood tubes at the indicated time points and stored at −70° C. until use. Total RNA was isolated from whole blood and treated with DNase using the PAXgene Blood miRNA Kit (Quiagen). This was followed by reverse transcription of mRNA into cDNA and amplification of host immune response genes by real time PCR. Woodchuck cytokine and interferon-stimulated genes included IFN-α, IFN-β, interleukin 6 (IL-6), 2′-5′-oligoadenylate synthetase 1 (OAS-1), interferon-induced 17 kDa protein (ISG15), and interferon gamma-induced protein 10 (IP-10or CXCL10). Woodchuck 18S rRNA expression was used to normalize target gene expression. […]

[3] = tested on: woodchuck hepatitis virus (WHV); test: Antiviral activity of Formula (Ia), intraperitoneal, in chronic WHV carrier woodchucks (Example 1); format: in vivo, woodchuck (Marmota monax)
Experimental: Three groups of five chronic WHV carrier woodchucks were used in this in this study. Formula (Ia) was administered intraperitoneally to two groups for a total of 4 weeks. Groups for drug treatment received Formula (Ia) at either 10 mg/kg/day or 30 mg/kg/day. The third group received physiological saline intraperitoneally and served as placebo-treated controls.
Blood samples for WHV serology, serum […], and hematological and biochemical profiles were obtained prior to the start of treatment and taken thereafter according to the study design. The body weight of each subject was recorded when the woodchucks were anesthetized and bled. The recorded body weights of the drug-treated woodchucks were compared to the placebo-treated control woodchucks to assess possible drug toxicity. WHsAg and anti-WHs and anti-WHc antibodies were determined qualitatively using established ELISA protocols. Dilutions of serum were used to ensure the detection of these markers […] conditions.
WHV DNA in serum was initially measured by dot blot hybridization and quantified by comparing signals of test specimens and standards of known WHV DNA concentration using a homologous probe. […] Quantitative WHV nucleic acid analyses were also performed using a real-time PCR assay with samples containing serum WHV DNA below the limit of detection by dot blot analysis. […]

CC(C)(C)C(=O)OCOP(=O)(COCCn1cnc2c(N)ncnc21)OCOC(=O)C(C)(C)C [ADV, adefovir dipivoxil, reference compound]
efficacy against cells infected with wild type and resistant HBV strains (in vitro activity, FIG. 31) [1]: efficacious against cells infected with all the HBV strains tested

C=C1[C@H](CO)[C@@H](O)C[C@@H]1n1cnc2c(=O)[nH]c(N)nc21 [ETV, entecavir, reference compound]
expected suppression of serum viremia ([2]; ETV 0.5 mg/kg daily oral for 4 weeks, expectation from previous studies): 3-4 log10 | reductions in serum WHV DNA from pretreatment level during the 4 weeks of ETV ([2]; ETV 0.5 mg/kg daily oral, Group 1): marked reductions | reductions in serum WHsAg from pretreatment level during the 4 weeks of ETV administration ([2]; ETV 0.5 mg/kg, most woodchucks of Group 1): marked reductions

COC1[C@@H](OP(=O)(S)OC[C@H]2O[C@@H](n3cnc4c(N)ncnc43)C[C@H]2O)[C@@H](CO)O[C@H]1n1ccc(=O)[nH]c1=O (stereo partly drawn) [Formula (Ia)]
staining intensity of cytoplasmic WHcAg in liver tissues compared to placebo controls ([3]; 30 mg/kg, end of treatment at week 4): significantly decreased | consistent reductions in serum WHsAg and in hepatic expression of WHcAg and WHsAg ([3]; 10 and 30 mg/kg/day, 4 weeks): not observed on a dose-response basis

Reference: US20180110796A1, “COMPOSITIONS AND METHODS FOR THE TREATMENT OF HBV INFECTION” (Spring Bank Pharmaceuticals, Inc., priority 2015, published 2018)
